Laboratory results as given in patent US7427625B2, “Substituted thiatriazaacenaphthylene-6-carbonitrile kinase inhibitors” (Janssen Pharmaceutica, N.V., priority 2006, dated 2008).

Experiments:
Aurora-A = biological target: T1, Aurora-A (Mus musculus, UniProt P97477); test: Aurora-A Screening Assay; format: biochemical, murine; conditions: for inhibition at 1 µM: test concentration of 1 μM, read-out: Aurora-A percent inhibition
T1 construct: followed by the full length protein encoding the murine Aurora-A; polyhistidine (N); made in house; host or cells: sf9 insect cells
T1 sequence (P97477 1-395): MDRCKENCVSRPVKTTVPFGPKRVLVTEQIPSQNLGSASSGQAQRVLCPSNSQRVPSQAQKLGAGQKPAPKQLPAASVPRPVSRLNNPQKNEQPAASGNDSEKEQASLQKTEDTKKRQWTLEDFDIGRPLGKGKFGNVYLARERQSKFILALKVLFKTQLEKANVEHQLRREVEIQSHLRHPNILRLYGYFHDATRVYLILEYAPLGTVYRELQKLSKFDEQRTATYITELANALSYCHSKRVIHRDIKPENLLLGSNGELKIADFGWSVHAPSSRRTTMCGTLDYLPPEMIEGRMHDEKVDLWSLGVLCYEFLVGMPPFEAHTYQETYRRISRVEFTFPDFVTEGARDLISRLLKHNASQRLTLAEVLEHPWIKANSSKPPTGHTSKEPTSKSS
Protocol: (§1) A kinase reaction mixture was prepared containing 50 mM Tris-HCl at pH 8, 10 mM, MgCl20.1 mM […], 1 mM DTT, 10 μM ATP, 0.025 μM biotinylated histone-H1 peptide substrate and 0.2 μCuries per well ^33P-γ-ATP (2000-3000 Ci/mmol). 70 μL of the kinase reaction mixture was dispensed into the well of a Streptavidin FlashPlate.
(§2) Test compound stock in 100% DMSO (1 μL) was added to the wells resulting in a final concentration of 1% DMSO in the reaction with a 100 μL final reaction volume. Each enzyme was diluted in 50 mM Tris-HCl pH=8.0, 0.1% BSA and 30 μL was added to each well to initiate the reaction. The reaction was incubated for one hour at 30° C. At the end of the 1 hr incubation, the reaction was terminated by aspirating the mixture from the plate and washing the wells twice with PBS containing 100 mM EDTA. The biotinylated peptide substrate became immobilized on the Flashplate^198 and the incorporation of ^33P-γ-ATP was measured by reading the plate on a scintillation counter. Inhibition of the enzymatic activity was measured by observing a reduced amount of ^33P-γ-ATP incorporated into the immobilized peptide.
Aurora-A is a fusion protein containing a polyhistidine tag at the N terminus followed by the full length protein encoding the murine Aurora-A (Accession number GB BC014711) expressed and purified from sf9 insect cells. The assay used 400 ng of the N-terminal biotinylated peptide biotin-GRTGRRNSI-amide (Aurora-A) per well.
(§3) The IC50 was derived according to the procedure described in Example 2. For those compounds without an IC50, the percent inhibition results are shown at a test concentration of 1 μM.

EGFR = biological target: T2, EGFR (Homo sapiens, UniProt P00533); test: EGFR Kinase Assay; format: biochemical; conditions: for inhibition at 2 µM: test concentration of 2 μM, read-out: EGFR percent inhibition
T2 construct: The intracellular portion of EGFR started at nucleotide 2189 (corresponding to amino acid 667) and ended at the termination codon; made in house; host or cells: Sf9 insect cells (baculovirus)
From the text: The EGFR kinase used was a fusion of Glutathione-S-Transferase (GST) and a PCR amplified intracellular portion of EGFR (NM_005228). The intracellular portion of EGFR started at nucleotide 2189 (corresponding to amino acid 667) and ended at the termination codon. The portion was PCR amplified with primers that added the lambda attB sequences to each end, recombined into an entry vector, then into a GST destination vector (as described in Gateway Technologies Manual by Invitrogen Corporation, Carlsbad, Calif.).
The destination vector was recombined in the DH10BAC strain of bacteria to produce a bacmid. The bacmid was transfected into Sf 9 cells and the supernatant containing the baculovirus was collected. The GSTEGFR protein was purified using large cultures of Sf 9 cells infected with stock virus. After an appropriate period of time, the cells were collected and lysed. The GSTEGFR was then purified from the lysate on Glutathione-Sepharose columns (as described by Amersham Biosciences, Buckinghamshire, United Kingdom).
The EGFR substrate was prepared by biotinylating polyGluTyr (128 mg) (Sigma, St. Louis, Mo.) in a 1×PBS buffer incubated together with a 12-fold molar excess of Sulfo-NHS-LC-Biotin on ice for at least 2 hrs. The free biotin was separated from the biotinylated polyGluTyr on a gel filtration column.
A mixture of a 10× kinase buffer (500 mM Tris at pH 8.0, 100 mM Magnesium Chloride and 1 mM Sodium Vanadate), DTT (1 mM final from 500 mM stock), ATP (5 μM final from 10 mM stock), biotinylated polyGluTyr (10 μg/μL stock), γ-^33P ATP (10 μCi/μL stock) and water was added to each well (90 μL/well) of a Streptavidin Flashplate (Perkin Elmer, Wellesley, Mass.).
Test compound in 100% DMSO (2 μL) was added to the appropriate wells. Diluted GSTEGFR (1:300 dilution in 50 mM Tris at pH 8.0 and 0.1% bovine serum albumin) (10 μL) was added to the wells to initiate the reactions.
The plates were incubated at 30° C. for 1 hr with shaking. The reacted contents were removed and the plates were sequentially washed three times with a 1×PBS stop buffer (300 μL without Magnesium and Calcium) and 100 mM EDTA. After the final wash, the same stop buffer (200 μL) was added to the wells. The plates were then sealed and read on the TopCount scintillation counter.
Test compounds were assayed in triplicate at 16 concentrations at half-log dilutions starting at 200 uM. A maximum and minimum signal for the assay was determined on each plate. The percent inhibition of a test compound was calculated according to the formula
For a series of test concentrations, the IC50 was derived by graphing percent inhibition against the log of the concentrations tested for a given compound. For those compounds without an IC50, the percent inhibition results are shown at a test concentration of 2 μM.

HER-2 = biological target: T3, HER-2 (Homo sapiens, UniProt P04626); test: HER-2 Kinase Assay; format: biochemical; conditions: for inhibition at 1 µM: test concentration of 1 μM, read-out: HER-2 percent inhibition
T3 construct: the nucleotides encoding amino acids 679 to 1255 of HER-2; purchased Proqinase (Freiburg, Germany)
Protocol: HER-2 kinase was purified at Proqinase (Freiburg, Germany) from a construct that consisted of a fusion of GST (Glutathione-S-Transferase), HIS6-Thrombin and the nucleotides encoding amino acids 679 to 1255 of HER-2.
A mixture of a 10× kinase reaction buffer (600 mM Hepes at pH 7.5, 30 mM Magnesium Chloride, 0.03 mM Sodium Vanadate and 500 μg/mL PEG 20,000), DTT (1.2 mM final from a 10 mM stock), ATP (1 μM from a 10 mM stock), biotinylated polyGluTyr (1.5 ng/μL final from stock of 1 μg/μL prepared by Upstate Biotechnologies, Lake Placid, N.Y.), Manganese Chloride (3 mM final from a 1 M stock), γ-^33P-ATP (10 μCi/μL stock) and water (70 μL/well) was added to each well of a Streptavidin Flashplate (Cat. #SMP103, NEN, Boston, Mass.).
Test compound stock (1 μL) was added to the appropriate wells. Diluted GSTHER2 kinase (6.7 ng/μL diluted into 50 mM Tris-HCl at pH 8.0 and 0.1% bovine serum albumin) (30 μL) was added (total volume of 200 ng/well) to initiate the reactions.
The reaction plates were incubated at 30° C. for 1 hr. The reaction was terminated by aspiring the reaction mixture from the plate wells and washing the wells three times with a 1×PBS stop buffer (300 μL) and 100 mM EDTA. After the final wash, the same stop buffer (200 μL) was again added to the wells. The plates were then sealed and read on the TopCount scintillation counter.
as §3

VEGF-R2 = biological target: T4, VEGF-R2 (Rattus norvegicus, UniProt O08775); test: VEGF-R2 Screening Assay; format: biochemical; conditions: for inhibition at 1 µM: test concentration of 1 μM, read-out: VEGF-R2 percent inhibition
T4 construct: polyhistidine (N)
Protocol: as §1, §2
The VEGF-R2 enzyme is a fusion protein containing a polyhistidine tag at the N terminus followed by amino acids 786 to 1343 of the rat VEGF-R2 kinase domain (Accession number U93306). The assay used 150 ng of the N-terminal biotinylated peptide biotin-KHKKLAEGSAYEEV-amide (VEGF-R2) per well.
as §3

T2 sequence (P00533 669-1210 limits assumed): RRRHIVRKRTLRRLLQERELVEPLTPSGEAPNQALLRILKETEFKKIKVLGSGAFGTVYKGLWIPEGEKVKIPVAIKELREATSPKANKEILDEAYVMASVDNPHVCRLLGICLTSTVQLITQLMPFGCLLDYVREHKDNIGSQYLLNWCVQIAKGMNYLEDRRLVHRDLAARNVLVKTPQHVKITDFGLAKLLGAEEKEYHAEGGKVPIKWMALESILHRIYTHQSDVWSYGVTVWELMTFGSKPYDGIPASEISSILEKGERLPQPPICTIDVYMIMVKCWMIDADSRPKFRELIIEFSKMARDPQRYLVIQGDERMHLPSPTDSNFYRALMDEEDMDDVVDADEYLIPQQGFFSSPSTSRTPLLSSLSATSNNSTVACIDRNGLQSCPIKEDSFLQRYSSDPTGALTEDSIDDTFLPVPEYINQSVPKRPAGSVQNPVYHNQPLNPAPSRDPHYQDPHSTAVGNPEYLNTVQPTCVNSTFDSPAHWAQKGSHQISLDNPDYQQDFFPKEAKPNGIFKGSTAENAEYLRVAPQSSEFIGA
T3 sequence (P04626 679-1255): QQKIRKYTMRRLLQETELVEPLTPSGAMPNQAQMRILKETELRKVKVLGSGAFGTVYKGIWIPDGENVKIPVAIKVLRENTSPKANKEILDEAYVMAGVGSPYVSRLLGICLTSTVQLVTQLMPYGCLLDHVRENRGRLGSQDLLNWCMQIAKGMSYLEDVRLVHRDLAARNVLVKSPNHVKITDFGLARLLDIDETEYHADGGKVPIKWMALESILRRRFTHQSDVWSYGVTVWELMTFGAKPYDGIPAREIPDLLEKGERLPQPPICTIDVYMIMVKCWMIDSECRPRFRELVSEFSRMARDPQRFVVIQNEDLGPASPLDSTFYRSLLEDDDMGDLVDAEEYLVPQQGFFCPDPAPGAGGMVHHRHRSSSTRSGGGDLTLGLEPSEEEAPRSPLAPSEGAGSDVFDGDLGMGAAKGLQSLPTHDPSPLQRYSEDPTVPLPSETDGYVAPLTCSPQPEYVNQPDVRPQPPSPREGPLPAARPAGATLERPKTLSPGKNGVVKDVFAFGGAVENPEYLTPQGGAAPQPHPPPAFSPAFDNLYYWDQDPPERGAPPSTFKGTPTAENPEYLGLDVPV
T4 sequence (O08775 786-1343): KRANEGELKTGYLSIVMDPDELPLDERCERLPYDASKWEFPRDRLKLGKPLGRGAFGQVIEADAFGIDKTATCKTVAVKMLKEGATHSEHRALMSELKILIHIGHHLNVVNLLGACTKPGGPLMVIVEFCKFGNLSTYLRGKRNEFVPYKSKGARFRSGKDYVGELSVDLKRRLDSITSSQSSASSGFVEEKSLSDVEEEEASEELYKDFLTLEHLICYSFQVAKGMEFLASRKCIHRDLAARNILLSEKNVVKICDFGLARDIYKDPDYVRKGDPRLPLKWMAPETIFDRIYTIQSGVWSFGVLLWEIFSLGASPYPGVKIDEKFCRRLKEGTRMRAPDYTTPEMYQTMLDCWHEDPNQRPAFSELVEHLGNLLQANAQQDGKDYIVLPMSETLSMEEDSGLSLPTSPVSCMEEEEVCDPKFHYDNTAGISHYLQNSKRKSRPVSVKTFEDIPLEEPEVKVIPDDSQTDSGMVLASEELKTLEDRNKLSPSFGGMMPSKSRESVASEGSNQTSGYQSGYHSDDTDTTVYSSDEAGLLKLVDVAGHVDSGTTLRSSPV

| inhibition at 1 µM (Aurora-A) [%] | inhibition at 2 µM (EGFR) [%] | inhibition at 1 µM (HER-2) [%] | inhibition at 1 µM (VEGF-R2) [%] | IC50 (HER-2) [µM] | IC50 (EGFR) [µM] | IC50 (Aurora-A) [µM] | IC50 (VEGF-R2) [µM] | SMILES |
| --- | --- | --- | --- | --- | --- | --- | --- | --- |
| 13 | 2 | 0 | 10 |  |  |  |  | CN(C(=O)c1sc2ncc(C#N)c3c2c1NC(=O)N3c1c(Cl)ccc2c1OCO2)c1ccc(CN2CCOCC2)cc1 [Cpd 29, 5-(5-chloro-benzo[1,3]dioxol-4-yl)-6-cyano-4-oxo-4,5-dihydro-3H-1-thia-3,5,8-triaza-acenaphthylene-2-carboxylic acid methyl-(4-morpholin-4-ylmethyl-phenyl)-amide] |
| 29 | 30 |  | 16 | > 1 |  |  |  | Cc1cc(NC(=O)c2sc3ncc(C#N)c4c3c2NC(=O)N4c2c(Cl)ccc3c2OCO3)no1 [Cpd 34, 5-(5-chloro-benzo[1,3]dioxol-4-yl)-6-cyano-4-oxo-4,5-dihydro-3H-1-thia-3,5,8-triaza-acenaphthylene-2-carboxylic acid (5-methyl-isoxazol-3-yl)-amide] |
| 4 | 13 | 0 | 2 |  |  |  |  | CC(C)(CO)NC(=O)c1sc2ncc(C#N)c3c2c1NC(=O)N3c1c(Cl)ccc2c1OCO2 [Cpd 38, 5-(5-chloro-benzo[1,3]dioxol-4-yl)-6-cyano-4-oxo-4,5-dihydro-3H-1-thia-3,5,8-triaza-acenaphthylene-2-carboxylic acid (2-hydroxy-1,1-dimethyl-ethyl)-amide] |
| 16 |  | 44 | 28 |  | 0.598 |  |  | N#Cc1cnc2sc(C(=O)Nc3ccc(CN4CCC(O)CC4)cc3)c3c2c1N(c1c(Cl)ccc2c1OCO2)C(=O)N3 [Cpd 23, 5-(5-chloro-benzo[1,3]dioxol-4-yl)-6-cyano-4-oxo-4,5-dihydro-3H-1-thia-3,5,8-triaza-acenaphthylene-2-carboxylic acid [4-(4-hydroxy-piperidin-1-ylmethyl)-phenyl]-amide] |
|  | 11 |  |  | 3.37 |  | 15.3 | 12.3 | N#Cc1cnc2sc(C(=O)Nc3ccc(CN4CCC(F)(F)CC4)cc3)c3c2c1N(c1c(Cl)ccc2c1OCO2)C(=O)N3 [Cpd 54, 5-(5-chloro-benzo[1,3]dioxol-4-yl)-6-cyano-4-oxo-4,5-dihydro-3H-1-thia-3,5,8-triaza-acenaphthylene-2-carboxylic acid [4-(4,4-difluoro-piperidin-1-ylmethyl)-phenyl]-amide] |
| 22 |  | 35 | 17 |  | 0.513 |  |  | COc1cc(NC(=O)c2sc3ncc(C#N)c4c3c2NC(=O)N4c2c(Cl)ccc3c2OCO3)ccc1OCCN1CCCCC1 [Cpd 31, 5-(5-chloro-benzo[1,3]dioxol-4-yl)-6-cyano-4-oxo-4,5-dihydro-3H-1-thia-3,5,8-triaza-acenaphthylene-2-carboxylic acid [3-methoxy-4-(2-piperidin-1-yl-ethoxy)-phenyl]-amide] |
| 16 | 34 | 0 | 7 |  |  |  |  | CN(C)c1cc(NC(=O)c2sc3ncc(C#N)c4c3c2NC(=O)N4c2c(Cl)ccc3c2OCO3)ccc1CN1CCOCC1 [Cpd 27, 5-(5-chloro-benzo[1,3]dioxol-4-yl)-6-cyano-4-oxo-4,5-dihydro-3H-1-thia-3,5,8-triaza-acenaphthylene-2-carboxylic acid (3-dimethylamino-4-morpholin-4-ylmethyl-phenyl)-amide] |
| 3 | 32 | 13 |  |  |  |  | > 100 | N#Cc1cnc2sc(C(=O)N3CCCC(CO)C3)c3c2c1N(c1c(Cl)ccc2c1OCO2)C(=O)N3 (stereo not drawn) [Cpd 21, 5-(5-chloro-benzo[1,3]dioxol-4-yl)-2-(3-hydroxymethyl-piperidine-1-carbonyl)-4-oxo-4,5-dihydro-3H-1-thia-3,5,8-triaza-acenaphthylene-6-carbonitrile] |
| 18 | 24 | 3 | 0 |  |  |  |  | C[C@@H]1CN(Cc2ccc(NC(=O)c3sc4ncc(C#N)c5c4c3NC(=O)N5c3c(Cl)ccc4c3OCO4)cc2)C[C@H](C)O1 [Cpd 25, 5-(5-chloro-benzo[1,3]dioxol-4-yl)-6-cyano-4-oxo-4,5-dihydro-3H-1-thia-3,5,8-triaza-acenaphthylene-2-carboxylic acid [4-(2,6-cis-dimethyl-morpholin-4-ylmethyl)-phenyl]-amide] |
